Source: US10259810B2, “N-sulfonylated pyrazolo[3,4-b]pyridin-6-carboxamides and method of use” (AbbVie S.à.r.l., priority 2015, dated 2019)

How the values were obtained:
ΔF508-CFTR [1] = biological target: T1, ΔF508-CFTR (Homo sapiens, UniProt P13569, DEL508-508); experiment: CFTR cell surface levels using HRP-tagged ΔF508-CFTR expressing CFBE cells, in the presence of a co-corrector; type: cell-based; details: HRP-tagged ΔF508-CFTR CFBE cells, in the presence of 3 μM co-corrector; for EC50: read-out: EC50
T1 construct: host or cells: CFBE41o-, doxycycline-inducible
T1 sequence (P13569 with tags, fused parts or gaps DEL508-508): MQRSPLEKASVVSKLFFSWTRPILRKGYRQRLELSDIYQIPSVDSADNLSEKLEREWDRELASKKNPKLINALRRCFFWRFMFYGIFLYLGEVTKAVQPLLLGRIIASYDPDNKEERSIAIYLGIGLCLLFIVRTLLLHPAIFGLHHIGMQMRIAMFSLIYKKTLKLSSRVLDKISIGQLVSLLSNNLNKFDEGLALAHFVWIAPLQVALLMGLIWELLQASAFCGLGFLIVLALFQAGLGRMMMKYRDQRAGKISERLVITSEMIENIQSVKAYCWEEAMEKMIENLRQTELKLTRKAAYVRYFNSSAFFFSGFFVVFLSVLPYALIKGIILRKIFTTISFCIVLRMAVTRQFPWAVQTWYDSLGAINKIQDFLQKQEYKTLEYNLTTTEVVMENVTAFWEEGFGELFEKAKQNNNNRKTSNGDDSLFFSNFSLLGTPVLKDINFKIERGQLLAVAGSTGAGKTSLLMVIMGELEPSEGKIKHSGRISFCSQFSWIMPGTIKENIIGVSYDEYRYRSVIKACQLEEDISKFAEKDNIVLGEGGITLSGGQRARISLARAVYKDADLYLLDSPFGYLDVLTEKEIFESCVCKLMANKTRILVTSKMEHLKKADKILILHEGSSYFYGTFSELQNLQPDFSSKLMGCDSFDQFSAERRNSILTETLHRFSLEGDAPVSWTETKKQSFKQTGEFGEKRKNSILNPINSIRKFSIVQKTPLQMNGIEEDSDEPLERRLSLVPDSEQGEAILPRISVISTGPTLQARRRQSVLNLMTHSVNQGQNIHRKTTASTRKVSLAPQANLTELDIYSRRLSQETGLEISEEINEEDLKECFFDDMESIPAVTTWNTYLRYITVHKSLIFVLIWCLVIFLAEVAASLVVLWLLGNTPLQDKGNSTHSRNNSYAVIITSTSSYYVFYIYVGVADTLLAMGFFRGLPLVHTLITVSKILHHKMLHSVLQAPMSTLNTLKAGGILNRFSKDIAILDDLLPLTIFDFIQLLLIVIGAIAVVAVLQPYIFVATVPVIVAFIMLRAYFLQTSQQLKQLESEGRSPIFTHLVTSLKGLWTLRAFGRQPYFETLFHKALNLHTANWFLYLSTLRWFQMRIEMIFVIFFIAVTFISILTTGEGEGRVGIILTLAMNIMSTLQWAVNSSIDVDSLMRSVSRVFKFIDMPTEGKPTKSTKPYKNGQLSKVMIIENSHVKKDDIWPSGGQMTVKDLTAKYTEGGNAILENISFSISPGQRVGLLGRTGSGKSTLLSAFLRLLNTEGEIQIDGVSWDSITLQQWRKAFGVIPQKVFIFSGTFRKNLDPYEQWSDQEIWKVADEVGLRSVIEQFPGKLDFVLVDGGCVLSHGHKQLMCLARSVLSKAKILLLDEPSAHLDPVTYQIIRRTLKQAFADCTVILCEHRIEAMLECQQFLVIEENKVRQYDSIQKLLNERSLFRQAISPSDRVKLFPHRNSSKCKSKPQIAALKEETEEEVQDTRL
How it was run: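 Chemiluminescent read-out of surface HRP (15 min, dark) after PBS washes. Activity is normalized as 100×(sample−DMSO)/(3 μM co-corrector alone−DMSO).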

ΔF508-CFTR [2] = biological target: T1, ΔF508-CFTR; experiment: CFTR cell surface levels using HRP-tagged ΔF508-CFTR expressing CFBE cells, intrinsic corrector capacity; type: cell-based; parameters: % Activation: concentration or dose not given beside the values; details: HRP-tagged ΔF508-CFTR expressing CFBE41o- cells, compound alone (intrinsic corrector capacity), 20 hours at 33° C.; for EC50: read-out: EC50
How it was run: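 Read-out: chemiluminescent HRP activity of ECL4-HRP-tagged ΔF508-CFTR at the cell surface, 15 min substrate in dark. Normalized as 100×(sample−DMSO)/(positive control−DMSO).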

| Structure (SMILES) | % Activation (ΔF508-CFTR [1]) [%] | EC50 (ΔF508-CFTR [1]) [nM] | % Activation (ΔF508-CFTR [2]) [%] | EC50 (ΔF508-CFTR [2]) [nM] |
| --- | --- | --- | --- | --- |
| CCS(=O)(=O)NC(=O)c1cc(N2CCCCC2)c2c(C(C)C)nn(-c3cccc(C)c3)c2n1 [Compound 102, N-(ethanesulfonyl)-1-(3-methylphenyl)-4-(piperidin-1-yl)-3-(propan-2-yl)-1H-pyrazolo[3,4-b]pyridine-6-carboxamide] | 458.75 | 537 | 233.9 | 897 |
| CS(=O)(=O)NC(=O)c1cc(-c2ccc(N3CCC(C#N)CC3)cc2)c2c(C3CCC3)nn(C3CCCCC3)c2n1 [Compound 103, 4-[4-(4-cyanopiperidin-1-yl)phenyl]-3-cyclobutyl-1-cyclohexyl-N-(methanesulfonyl)-1H-pyrazolo[3,4-b]pyridine-6-carboxamide] | 501.03 | 409 | 263.8 | 536 |
| CC(C)c1nn(-c2cccc(N3CC(O)C3)c2)c2nc(C(=O)NS(C)(=O)=O)cc(-c3ccc(N4CCOCC4)cc3)c12 [Compound 105, 1-[3-(3-hydroxyazetidin-1-yl)phenyl]-N-(methanesulfonyl)-4-[4-(morpholin-4-yl)phenyl]-3-(propan-2-yl)-1H-pyrazolo[3,4-b]pyridine-6-carboxamide] | 457.85 | 699 | 258.1 | 908 |
| COC1CCN(c2ccc(-c3cc(C(=O)NS(C)(=O)=O)nc4c3c(C(C)C)nn4C3CCCCC3)cn2)C1 (stereo not shown) [Compound 106, 1-cyclohexyl-N-(methanesulfonyl)-4-[6-(3-methoxypyrrolidin-1-yl)pyridin-3-yl]-3-(propan-2-yl)-1H-pyrazolo[3,4-b]pyridine-6-carboxamide] | 348.1 | 394 | 162.75 | 526 |
| COC(=O)N1CC(c2nn(-c3cc(F)cc(F)c3)c3nc(C(=O)NS(C)(=O)=O)cc(-c4ccc(NC(C)=O)cc4)c23)C1 [Compound 107, methyl 3-{4-(4-acetamidophenyl)-1-(3,5-difluorophenyl)-6-[(methanesulfonyl)carbamoyl]-1H-pyrazolo[3,4-b]pyridin-3-yl}azetidine-1-carboxylate] | 219.4 | 3340 | 64.54 | 3340 |
| CC(C)c1nn(C2CCCCC2)c2nc(C(=O)NS(C)(=O)=O)cc(-c3ccc(N4CCCC(F)C4)nc3)c12 (stereo not shown) [Compound 108, 1-cyclohexyl-4-[6-(3-fluoropiperidin-1-yl)pyridin-3-yl]-N-(methanesulfonyl)-3-(propan-2-yl)-1H-pyrazolo[3,4-b]pyridine-6-carboxamide] | 428.3 | 509 | 218.05 | 561 |
| COCCN(C)c1ccc(-c2cc(C(=O)NS(C)(=O)=O)nc3c2c(C(C)C)nn3-c2cccc(N3CCCC3)c2)cc1 [Compound 109, N-(methanesulfonyl)-4-{4-[(2-methoxyethyl)(methyl)amino]phenyl}-3-(propan-2-yl)-1-[3-(pyrrolidin-1-yl)phenyl]-1H-pyrazolo[3,4-b]pyridine-6-carboxamide] | 571.3 | 634 | 381.05 | 613 |
| CN(c1ccc(-c2cc(C(=O)NS(C)(=O)=O)nc3c2c(C2CCC2)nn3-c2cccc(N3CCCC3)c2)cc1)C1CCOCC1 [Compound 111, 3-cyclobutyl-N-(methanesulfonyl)-4-{4-[methyl(oxan-4-yl)amino]phenyl}-1-[3-(pyrrolidin-1-yl)phenyl]-1H-pyrazolo[3,4-b]pyridine-6-carboxamide] | 596.8 | 378 | 411.63 | 444 |
| CCS(=O)(=O)NC(=O)c1cc(-c2cnc(N3CCOCC3)nc2)c2c(C(C)C)nn(-c3ccccc3)c2n1 [Compound 112, N-(ethanesulfonyl)-4-[2-(morpholin-4-yl)pyrimidin-5-yl]-1-phenyl-3-(propan-2-yl)-1H-pyrazolo[3,4-b]pyridine-6-carboxamide] | 472.8 | 884 | 254.85 | 699 |
| CCS(=O)(=O)NC(=O)c1cc(-c2ccc(OC)cc2)c2c(C)nn(-c3ccc(C)c(Cl)c3)c2n1 [Compound 114, 1-(3-chloro-4-methylphenyl)-N-(ethanesulfonyl)-4-(4-methoxyphenyl)-3-methyl-1H-pyrazolo[3,4-b]pyridine-6-carboxamide] | 277.45 | 952 | 130.85 | 1140 |
| CCS(=O)(=O)NC(=O)c1cc(-c2ccc(N3CCOCC3)cc2)c2c(C)nn(-c3cc(C)cc(C)c3)c2n1 [Compound 115, 1-(3,5-dimethylphenyl)-N-(ethanesulfonyl)-3-methyl-4-[4-(morpholin-4-yl)phenyl]-1H-pyrazolo[3,4-b]pyridine-6-carboxamide] | 389.6 | 665 | 216.05 | 1050 |
| CCS(=O)(=O)NC(=O)c1cc(-c2ccc(N3CCOCC3)cc2)c2c(C)nn(-c3ccc(F)c(F)c3)c2n1 [Compound 116, 1-(3,4-difluorophenyl)-N-(ethanesulfonyl)-3-methyl-4-[4-(morpholin-4-yl)phenyl]-1H-pyrazolo[3,4-b]pyridine-6-carboxamide] | 438.37 | 630 | 295.57 | 957 |
| CCS(=O)(=O)NC(=O)c1cc(N2CCC(OC)CC2)c2c(C(C)C)nn(-c3cccc(C)c3)c2n1 [Compound 118, N-(ethanesulfonyl)-4-(4-methoxypiperidin-1-yl)-1-(3-methylphenyl)-3-(propan-2-yl)-1H-pyrazolo[3,4-b]pyridine-6-carboxamide] | 469 | 280 | 289.93 | 398 |
| COCCN(C)c1ncc(-c2cc(C(=O)NS(C)(=O)=O)nc3c2c(C(C)C)nn3C2CCCCC2)cn1 [Compound 120, 1-cyclohexyl-N-(methanesulfonyl)-4-{2-[(2-methoxyethyl)(methyl)amino]pyrimidin-5-yl}-3-(propan-2-yl)-1H-pyrazolo[3,4-b]pyridine-6-carboxamide] | 351.03 | 348 | 169.2 | 554 |
| CC(C)c1nn(C2CCCCC2)c2nc(C(=O)NS(C)(=O)=O)cc(-c3ccc(N(C)C4CCOC4)nc3)c12 (stereo not shown) [Compound 122, 1-cyclohexyl-N-(methanesulfonyl)-4-{6-[methyl(oxolan-3-yl)amino]pyridin-3-yl}-3-(propan-2-yl)-1H-pyrazolo[3,4-b]pyridine-6-carboxamide] | 405.9 | 281 | 184.53 | 470 |
| CC(C)c1nn(C2CCCCC2)c2nc(C(=O)NS(C)(=O)=O)cc(-c3cnc(N(C)C4CCOCC4)nc3)c12 [Compound 123, 1-cyclohexyl-N-(methanesulfonyl)-4-{2-[methyl(oxan-4-yl)amino]pyrimidin-5-yl}-3-(propan-2-yl)-1H-pyrazolo[3,4-b]pyridine-6-carboxamide] | 365.8 | 239 | 153.8 | 428 |
